Broadly, the IC50 is the concentration that inhibits the measured activity by half.

Data on 8 molecules can be found in patent publication US9024017B2, “Octahydro-cyclopentapyrrolyl antagonists of CCR2” (Janssen Pharmaceutica NV, priority 2012, dated 2015).

The assay addresses T1, CCR2 (Homo sapiens, UniProt P41597).
T1 construct: host or cells: THP-1 (human monocytic cell line)
In words: MCP-1 Receptor Binding Assay in THP-1 Cells. The settings on record: read-out: MCP1B_v3 IC50. As to the method:
Compounds of the invention were subjected to various representative biological tests. […] MCP-1 Receptor Binding Assay in THP-1 Cells Human monocytic cell line THP-1 cells were obtained from American Type Culture Collection (Manassas, Va., USA). The THP-1 cells were grown in RPMI-1640 (RPMI: Roswell Park Memorial Institute Medium-cell culture growth media) supplemented with 10% fetal bovine serum in a humidified 5% CO2 atmosphere at 37° C. The cell density was maintained between […].
THP-1 (cells were incubated with 0.5 nM ^125I labeled MCP-1 (Perkin-Elmer Life Sciences, Inc. Boston, Mass.) in the presence of varying concentrations of either unlabeled MCP-1 (R & D Systems, Minneapolis, Minn.) or test compound for 2 hours at 30° C. in a 96 well plate. Cells were then harvested onto a filter plate, dried, and 20 μL of Microscint 20 was added to each well. Plates were counted in a TopCount NXT, Microplate Scintillation & Luminescence Counter (Perkin-Elmer Life Sciences, Inc. Boston, Mass.). Blank values (buffer only) were subtracted from all values and drug treated values were compared to vehicle treated values. 1 μM cold MCP-1 was used for nonspecific binding.

T1 sequence (P41597 whole entry): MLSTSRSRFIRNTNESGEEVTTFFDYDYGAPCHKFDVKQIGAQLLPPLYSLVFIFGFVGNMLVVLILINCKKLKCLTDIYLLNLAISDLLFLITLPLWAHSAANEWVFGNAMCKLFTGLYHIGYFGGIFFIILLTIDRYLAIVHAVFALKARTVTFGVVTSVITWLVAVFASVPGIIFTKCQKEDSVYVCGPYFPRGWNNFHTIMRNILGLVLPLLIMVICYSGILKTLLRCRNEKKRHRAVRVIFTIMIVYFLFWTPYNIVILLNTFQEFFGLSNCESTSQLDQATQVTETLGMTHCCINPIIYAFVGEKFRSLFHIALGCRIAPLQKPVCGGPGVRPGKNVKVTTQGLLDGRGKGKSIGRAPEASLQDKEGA

For the molecule `COC1COCCC1N[C@@H]1C[C@H]2CN(C(N)=O)C[C@@]2(C(=O)N2CCc3ncc(C(F)(F)F)cc3C2)C1` (relative stereo) [Example 2, (3aR,5R,6aR)-5-(((3S*,4S*)-(3-Methoxytetrahydro-2H-pyran-4-yl)amino)-3a-(3-(trifluoromethyl)-5,6,7,8-tetrahydro-1,6-naphthyridine-6-carbonyl)hexahydrocyclopenta[c]pyrrole-2(1H)-carboxamide], the IC50 came to 60 nM.
Take `CO[C@@H]1COCC[C@H]1N[C@@H]1C[C@H]2CN(C(N)=O)C[C@@]2(C(=O)N2CCc3ncc(C(F)(F)F)cc3C2)C1` (relative stereo) [Example 5, (3aR,5R,6aR)-5-(((3S*,4R*)-(3-Methoxytetrahydro-2H-pyran-4-yl)amino)-3a-(3-(trifluoromethyl)-5,6,7,8-tetrahydro-1,6-naphthyridine-6-carbonyl)hexahydrocyclopenta-[c]pyrrole-2(1H)-carboxamide]: the IC50 was found to be 1350 nM.
The result for `COC1COCCC1N[C@@H]1C[C@H]2CN(C(N)=O)C[C@@]2(C(=O)N2CCc3ccc(C(F)(F)F)cc3C2)C1` (relative stereo) [Example 6, (3aR,5R,6aR)-5-(((3S*,4S*)-3-Methoxytetrahydro-2H-pyran-4-yl)amino)-3a-(7-(trifluoromethyl)-1,2,3,4-tetrahydroisoquinoline-2-carbonyl)hexahydrocyclopenta-[c]pyrrole-2(1H)-carboxamide] reads 10 nM; that for `CCOC1COCCC1N[C@@H]1C[C@H]2CN(C(N)=O)C[C@@]2(C(=O)N2CCc3ncc(C(F)(F)F)cc3C2)C1` (relative stereo) [Example 9, (3aR,5R,6aR)-5-(((3S*,4S*)-3-Ethoxytetrahydro-2H-pyran-4-yl)amino)-3a-(3-(trifluoromethyl)-5,6,7,8-tetrahydro-1,6-naphthyridine-6-carbonyl)hexahydrocyclopenta-[c]pyrrole-2(1H)-carboxamide], 190 nM.
Consider `COC1COCCC1N[C@@H]1C[C@H]2CN(C(N)=O)C[C@@]2(C(=O)NCc2cccc(C(F)(F)F)c2)C1` (relative stereo) [Example 10, (3aR,5R,6aR)-5-(((3S*,4S*)-3-Methoxytetrahydro-2H-pyran-4-yl)amino)-N^3a-(3-(trifluoromethyl)benzyl)hexahydrocyclopenta[c]pyrrole-2,3a(1H)-dicarboxamide], for which the IC50 stood at 320 nM.
With `COC1COCCC1N[C@@H]1C[C@H]2CN(C(N)=O)C[C@@]2(C(=O)NCc2cc(F)cc(C(F)(F)F)c2)C1` (relative stereo) [Example 11, (3aR,5R,6aR)-N^3a-(3-Fluoro-5-(trifluoromethyl)benzyl)-5-(((3S*,4S*)-3-methoxytetrahydro-2H-pyran-4-yl)amino)hexahydrocyclopenta[c]pyrrole-2,3a(1H)-dicarboxamide], the IC50 is 320 nM.
The result for `COC1COCCC1N[C@@H]1C[C@H]2CN(C(N)=O)C[C@@]2(C(=O)NCc2cc(C(F)(F)F)cc(C(F)(F)F)c2)C1` (relative stereo) [Example 12, (3aR,5R,6aR)-N^3a-(3,5-Bis(trifluoromethyl)benzyl)-5-(((3S*,4S*)-3-methoxytetrahydro-2H-pyran-4-yl)amino)hexahydrocyclopenta[c]pyrrole-2,3a(1H)-dicarboxamide] reads 100 nM; that for `CNC(=O)N1C[C@@H]2C[C@@H](NC3CCOCC3OC)C[C@]2(C(=O)N2CCc3ncc(C(F)(F)F)cc3C2)C1` (relative stereo) [Example 13, (3aR,5R,6aR)-5-(((3S*,4S*)-(3-Methoxytetrahydro-2H-pyran-4-yl)amino)-N-methyl-3a-(3-(trifluoromethyl)-5,6,7,8-tetrahydro-1,6-naphthyridine-6-carbonyl)hexahydrocyclopenta-[c]pyrrole-2(1H)-carboxamide], 80 nM.
